Measured values published in patent US20180353457A1, “ABIETANE DITERPENOID 7-ACETOXYROYLEANONES FOR USE IN CANCER TREATMENT” (University of South Carolina, priority 2017, published 2018).
Like-named read-outs stand apart in the source and are kept apart here.

Tests used:
[1] = test system: A2780ADR (doxorubicin resistant subclone of ovarian carcinoma A2780) cells; experiment: MTS cytotoxicity assay, A2780ADR; format: cell-based; conditions: 48 and 72 hours of exposure
Excerpt: (§1) Human cell lines used included MG-63 (osteosarcoma), SK-OV-3 (ovarian adenocarcinoma), MDA-MB-231 (breast adenocarcinoma derived from a metastatic site), HCT 116 (colorectal carcinoma), HCT 116/200 (an FdUrd resistant subclone of HCT 116 cells), and A2780ADR (a doxorubicin resistant subclone of the ovarian carcinoma A2780). All cells were stored in liquid nitrogen until use. MG-63, SK-OV-3, MDA-MB-231, and HCT 116 cell lines were all obtained from ATCC. A2780ADR cells were obtained from Sigma-Aldrich. HCT 116/200 cells were obtained from Dr. Franklin G. Berger from the Center for Colon Cancer Research. MG-63 cells were maintained in MEM medium (Corning) supplemented with 10% Fetal Bovine Essence (VWR) and 1% penicillin/streptomycin solution (Corning). SK-OV-3 cells were maintained in McCoy's 5A Medium (Sigma) supplemented with Fetal Bovine Essence and 1% penicillin/streptomycin. […]
(§2) Cells were first grown to approximately 80% confluency within […] tissue culture flasks (VWR). […] Cells were counted using a hemocytometer and their viability was confirmed using trypan blue (Gibco). […]
(§3) In combination studies, 7-acetoxyroyleanone and FdUrd were first mixed into the same media and then added to the cells. […] The cells were incubated for 2 hours, and the absorbance of each well at 490 nm was measured using a Spectramax 190 microplate reader.

[2] = test system: MDA-MB-468 (breast cancer) cells; experiment: NCI-60 five dose screen, MDA-MB-468; conditions: read-out: LC50; MDA-MB-468, Breast
[3] = test system: leukemia cell lines; conditions: read-out: LC50; each leukemia cell line; not reached at highest concentration tested
[4] = test system: HCT 116 (colorectal carcinoma) cells; experiment: MTS cytotoxicity assay, HCT 116; format: cell-based; conditions: HCT 116 cells
Excerpt: as §1, §2, §3

[5] = test system: SF-295 (CNS cancer) cells; experiment: NCI-60 five dose screen, SF-295; conditions: read-out: LC50; SF-295, CNS
[6] = test system: HCT 116/200 (FdUrd resistant subclone of HCT 116) cells; experiment: MTS cytotoxicity assay, HCT 116/200; format: cell-based; conditions: HCT 116/200 cells
Excerpt: as §1, §2, §3

[7] = test system: SK-OV-3 (ovarian adenocarcinoma) cells; experiment: MTS cytotoxicity assay, SK-OV-3; format: cell-based; conditions: SK-OV-3 cells
Excerpt: as §1, §2, §3

[8] = test system: A498 (renal cancer) cells; experiment: NCI-60 five dose screen, A498; conditions: read-out: LC50; A498, Renal
[9] = test system: DU-145 (prostate cancer) cells; experiment: NCI-60 five dose screen, DU-145; conditions: read-out: LC50; DU-145, Prostate
[10] = test system: HOP-92 (non-small cell lung cancer) cells; experiment: NCI-60 five dose screen, HOP-92; conditions: read-out: LC50; HOP-92, Non-small Cell Lung Cancer
[11] = test system: MDA-MB-435 (melanoma) cells; experiment: NCI-60 five dose screen, MDA-MB-435; conditions: read-out: LC50; MDA-MB-435, Melanoma
[12] = test system: NCI-H522 (non-small cell lung cancer) cells; experiment: NCI-60 five dose screen, NCI-H522; conditions: read-out: LC50; NCI-H522, Non-small Cell Lung Cancer
[13] = test system: OVCAR-3 (ovarian cancer) cells; experiment: NCI-60 five dose screen, OVCAR-3; conditions: read-out: LC50; OVCAR-3, Ovarian
[14] = test system: SK-MEL-5 (melanoma) cells
[15] = test system: NCI-60 panel of cancer cell lines; conditions: for GI50: across all 60 cell lines
[16] = test system: MG-63 (osteosarcoma) cells; experiment: MTS cytotoxicity assay, MG-63; format: cell-based; conditions: MG-63 cells, 48 and 72 hours of exposure
Excerpt: as §1, §2, §3

[17] = read-out: LC50; melanoma cell line SK-OV-3 (so in the source), most sensitive to cell death
[18] = 48 and 72 hours of exposure, MTS

Q: Which “cytotoxicity (percent viability)” value [1] does the source give for `CC(=O)O[C@@H]1C[C@H]2C(C)(C)CCC[C@]2(C)C2=C1C(=O)C(C(C)C)=C(O)C2=O` [7-acetoxyroyleanone] here?
A: significant cytotoxic properties

Q: What about the CC50 [2] of the same compound?
A: 9.46 µM

Q: And the CC50 [3]?
A: > 100 µM

Q: And the “cell death at the lowest concentration tested” value ([4]; 1 μg/mL)?
A: cell death was indicated

Q: What about the “cytotoxicity (percent viability)” value [4, 18] of the same compound?
A: significant cytotoxic properties

Q: What about the CC50 [5] of the same compound?
A: 7.37 µM

Q: What about the “cytotoxicity (percent viability)” value ([6]; 48 and 72 hours of exposure) of the same compound?
A: significant cytotoxic properties

Q: What about the “cytotoxic effect in combination with FdUrd (percent viability, cell number)” value ([6]; 48 hour exposure, combined with 1 μg/mL FdUrd) of the same compound?
A: synergistic cytotoxic effect

Q: And the “cell death at the lowest concentration tested” value ([7]; 1 μg/mL)?
A: cell death was indicated

Q: What about the “cytotoxicity (percent viability)” value [7, 18] of the same compound?
A: significant cytotoxic properties

Q: What about the CC50 [8] of the same compound?
A: 5.19 µM

Q: What about the CC50 [9] of the same compound?
A: 5.67 µM

Q: And the CC50 [10]?
A: 5.4 µM

Q: What about the CC50 [11] of the same compound?
A: 5.87 µM

Q: And the CC50 [12]?
A: 9.02 µM

Q: What about the CC50 [13] of the same compound?
A: 7.46 µM

Q: What about the CC50 [14] of the same compound?
A: 4.34 µM

Q: What about the CC50 [15] of the same compound?
A: 11.5 µM

Q: What about the “average TGI concentration” value ([15]; across the 50 cell lines with TGI within the range tested) of the same compound?
A: 6.69 µM

Q: What about the GI50 ([15]; read-out: average GI50 concentration, five dose screen) of the same compound?
A: 1.27 µM

Q: And the GI50 ([15]; read-out: range of the GI50 concentrations)?
A: 2.86 µM

Q: And the “cytotoxicity (percent viability)” value [16]?
A: significant cytotoxic properties

Q: And the CC50 [17]?
A: 4.34 µM
